Assay results taken from patent US9980936B2, “BH4 antagonists and methods related thereto” (Emory University, priority 2014, dated 2018).
“Also recorded” adds a separate entry of the source. Where two headings read alike, the source gives them in different places.

Columns and labels:
[1] = target: Bfl-1/A1 (Homo sapiens, UniProt Q16548); test: binding to other Bcl2 family members
[2] = tested on: human lung cancer cells; test: screening of cytotoxicity by sulforhodamine B (SRB) assay; type: cell-based; details: among top 200 docked small molecules
Excerpt: A library containing approximately 300,000 small molecules from the National Cancer Institute (NCI) was used to dock the structural pocket of the BH4 domain. The small molecules were ranked according to their energy scores. The top 200 small molecules were selected for screening of cytotoxicity in human lung cancer cells by sulforhodamine B (SRB) assay.

[3] = tested on: H460 cells; test: SRB cell growth assay, combination with mTOR inhibitor; type: cell-based, human; details: BDA-366 100 nM, RAD001 1 nM, alone or in combination, 72 hr
Description: Cell growth was analyzed by sulforhodamine B (SRB) colorimetric assay.

[4] = tested on: H1299 cells overexpressing Bcl2 AAAA mutant; test: cell survival of H1299 cells overexpressing compound Bcl2 AAAA mutant; type: cell-based
Excerpt: (§1) A panel of Bcl2 mutants were generated within the BH4 domain at the specific residues that were identified by the initial docking simulations, including D10A, N11A, R12A, E13A, M16A, K17A, H20A and D31A Bcl2 mutants. A compound Bcl2 mutant D10A/N11A/R12A/E13A (AAAA) was created. Recombinant proteins of these mutants were generated for BDA-2/Bcl2 binding analysis using a competitive fluorescence polarization. […] Second, WT and all Bcl2 mutants were exogenously overexpressed in H1299 cells that express undetectable levels of endogenous Bcl2.

[5] = tested on: H460 or DMS53 cells expressing Bcl2 shRNA transfected with AAAA Bcl2 mutant; test: rescue of Bcl2-silenced cells with AAAA Bcl2 mutant; type: cell-based; details: 72 h
Excerpt: (§2) Whether expression of exogenous Bcl2 can restore the sensitivity of Bcl2-silenced lung cancer cells to BDA-2 and whether the BDA-2/BH4 binding is important for such effect was examined. WT and BDA-2 binding deficient D10A/N11A/R12A/E13A (AAAA) Bcl2 mutant cDNA in pCIneo or vector-only control were transfected into H460 or DMS53 cells expressing Bcl2 shRNA. It has been reported that if the shRNA is directed to the 3′ UTR or 5′ UTR of the gene, the effect of the shRNA1 can be rescued by ectopically expressing the protein using the wild-type or mutant cDNA. Because Bcl2 shRNA1 targets the 5′UTR of endogenous Bcl2, the silencing effect of shRNA1 on Bcl2 expression could be rescued by transfection of exogenous WT or AAAA Bcl2 mutant. After transfection, cells were treated with BDA-2 or the BH3 mimetic ABT-199 at the indicated concentrations for 72 h. […] The apoptotic effect of BDA-2 on lung cancer cells requires its BH4 binding.

[6] = tested on: NSCLC cell lines H157, Calu-1, H358, H460, H1975 and SCLC cell lines DMS53, DMS153, H146, H69; test: cell growth (SRB) and apoptosis (Annexin V/PI), lines with higher Bcl2; type: cell-based; details: relatively higher levels of Bcl2
Description: The effect of BDA-2 on cell growth and apoptosis was measured by SRB assay and Annexin V/PI binding, respectively, in both small cell lung cancer (SCLC) and non-small cell lung cancer (NSCLC) cell lines that express various levels of endogenous Bcl2.

[7] = target: T1, purified, human Bcl2 protein (Homo sapiens, UniProt P10415); test: in vitro cell-free Bcl2 conformational change assay (IP with anti-Bcl2/BH3 domain antibody); type: biochemical
T1 sequence (P10415 whole entry, the tested form may be a part): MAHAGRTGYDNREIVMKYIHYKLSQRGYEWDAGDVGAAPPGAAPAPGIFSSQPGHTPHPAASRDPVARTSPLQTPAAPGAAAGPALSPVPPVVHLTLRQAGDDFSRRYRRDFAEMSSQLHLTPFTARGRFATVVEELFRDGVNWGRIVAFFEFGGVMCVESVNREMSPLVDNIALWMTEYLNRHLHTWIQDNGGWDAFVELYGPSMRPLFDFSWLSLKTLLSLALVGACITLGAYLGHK
Description: To test whether BDA-2 directly induces Bcl2 conformational change, an in vitro cell-free assay was employed. Purified recombinant Bcl2 protein was incubated with increasing concentrations of BDA-2 in lysis buffer, followed by immunoprecipitation (IP) using the anti-Bcl2/BH3 domain antibody.

[8] = tested on: PDX obtained from a patient with refractory SCLC; test: patient-derived xenografts (PDX) of refractory SCLC; type: in vivo, Mice; details: 20 mg/kg/d i.p., 2 weeks
Description: Mice carrying xenografts derived from a patient with refractory SCLC were treated with BDA-366 (20 mg/kg/d) via i.p. for 2 weeks.
To evaluate the anti-tumor activity of BDA-2 against SCLC in vivo, patient-derived xenografts (PDX) were established without intervening in vitro culture, which are expected to better recapitulate the SCLC tumor setting.

[9] = tested on: D10A, N11A, R12A, E13A, M16A, K17A, H20A and D31A Bcl2 mutants; test: competitive fluorescence polarization, BH4 single-site mutants; type: binding; details: single mutation at each individual residue
Excerpt: as §1

[10] = target: T1, purified, human Bcl2 protein; test: competition fluorescence polarization assay (FITC-QDCMWSGFSA peptide); type: binding; details: 3 nM peptide, 6 nM Bcl2
Description: Thus, the change of mP reflects the interaction between the fluorescent-labeled peptide and the Bcl2 protein. Data (i.e. mP value) can be imported into Prism 3.0 to determine the dissociation constant (Kd) and the binding range for each peptide.
This interaction between Bcl2 and the peptide forms the basis for the fluorescence polarization assay.
The plate was mixed on a shaker for 1 min and incubated at room temperature for an additional 15 min. The polarization, as defined as mP units, was measured at room temperature with a fluorescence microplate reader (Wallace, Calif.). A negative control (DMSO, 3 nM peptide and assay buffer) and a positive control (DMSO, 3 nM peptide, 6 nM Bcl2 and assay buffer) were used to determine the range of the assay.

[11] = tested on: H460 or DMS53 cells expressing Bcl2 shRNA transfected with WT Bcl2; test: rescue of Bcl2-silenced cells with exogenous WT Bcl2; type: cell-based; details: 72 h
Excerpt: as §2

[12] = tested on: purified recombinant Bax; test: cell-free Bax activation (IP using 6A7 Bax antibody); type: biochemical
Description: BDA-366-induced Bcl2 conformational change was also confirmed by immunofluorescence using a Bcl2/BH3-domain specific antibody. […] To test this possibility, a 6A7 Bax antibody that only recognizes the conformationally changed, active, form of Bax was employed. Purified Bcl2 was treated with BDA-366 in lysis buffer for 1 h. The mixture of Bcl2/BDA-2 was then incubated with purified recombinant Bax for another 2 h, followed by IP using 6A7 antibody.
To further test whether the BH3 domain of Bcl2 is important for BDA-366 activation of Bax, purified recombinant WT and the BH3 deletion (ΔBH3) mutant Bcl2 proteins were incubated with purified Bax protein in the absence or presence of BDA-366, followed by IP with 6A7 antibody. […] To test this at the cellular or mitochondrial level, WT, ΔBH3 Bcl2 mutant and empty vector (pCIneo) were transfected into H1299 cells that express undetectable levels of endogenous Bcl2 but high levels of endogenous Bax. Cells or isolated mitochondria from these cells were treated with BDA-2, followed by IP with Bcl2 BH3 or 6A7 antibody, respectively.

[13] = tested on: lung cancer xenografts derived from H460 cells; test: H460 lung cancer xenografts
Description: Each group included 8 mice. Tumor volume was measured once every 2 days. After 14 days, the mice were sacrificed and the tumors were removed and analyzed.
To assess whether BDA-366 induced suppression of tumor growth via apoptosis in vivo, representative samples from harvested tumor tissues were analyzed by immunohistochemistry (IHC) for active caspase 3 or TUNEL assat.

[14] = tested on: wild type (WT) and Bax knockout (Bax−/−) MEF cells; test: apoptotic effect on WT and Bax knockout MEF cells; type: cell-based
Description: To further determine whether Bax is important for BDA-2 induction of apoptosis, the apoptotic effect of BDA-366 was tested on wild type (WT) and Bax knockout (Bax−/−) MEF cells. […] To test whether BDA-2/BH4 binding affects the IP3R/Bcl2 interaction and Ca2+ release, H460 cells were treated with increasing concentrations of BDA-366 for 24 h.

[15] = 10, 20, 30 mg/kg/d i.p., 14 days

Chain of Bfl-1/A1 (Q16548 whole entry): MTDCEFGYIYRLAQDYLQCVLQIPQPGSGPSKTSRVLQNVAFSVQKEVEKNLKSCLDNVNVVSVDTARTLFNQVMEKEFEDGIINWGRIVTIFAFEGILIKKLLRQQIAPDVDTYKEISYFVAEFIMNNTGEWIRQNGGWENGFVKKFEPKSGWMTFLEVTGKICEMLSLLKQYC

Q: CCN(CC)CC(O)CNc1ccc(NCC2CO2)c2c1C(=O)c1ccccc1C2=O (stereo not drawn) [BDA-366, 1-((3-(diethylamino)-2-hydroxypropyl)amino)-4-((oxiran-2-ylmethyl)amino)anthracene-9,10-dione] was tested. Which “binding to Bfl-1/A1” value [1] did it give?
A: failed to bind

Q: And the “binding to Bfl-1/A1” value ([1]; listed as BDA-2)?
A: did not bind

Q: What about the “activity against human lung cancer cells” value [2] of the same molecule?
A: most potent activity

Q: And the cell growth inhibition [3]?
A: partially inhibited lung cancer cell growth

Q: And the “cell survival on exposure, AAAA mutant overexpressed” value [4]?
A: significantly prolonged cell survival

Q: What about the “sensitivity of cells restored after expression of AAAA Bcl2” value [5] of the same molecule?
A: not

Q: And the sensitivity of cells [6]?
A: more sensitive

Q: And the “direct induction of Bcl2 conformational change (BH3 exposure)” value [7]?
A: enhanced the ability of the Bcl2/BH3 domain-specific antibody to bind Bcl2

Q: What about the “growth of SCLC PDX” value [8] of the same molecule?
A: effectively suppressed the growth of PDX; also recorded: potently suppressed the growth of the SCLC PDX; also recorded: represses tumor growth in xenografts derived from SCLC patient

Q: And the “binding to single-site Bcl2 mutants” value [9]?
A: did not significantly reduce Bcl2's ability to bind BDA-2

Q: And the Ki [10]?
A: 0.93 ± 0.08 nM

Q: And the “sensitivity of cells after expression of exogenous WT Bcl2” value [11]?
A: restored sensitivity

Q: And the “Bax binding to 6A7 antibody induced by compound-treated Bcl2” value ([12]; Bcl2 treated 1 h, then Bax 2 h)?
A: enhanced the ability of Bax to bind to 6A7 antibody

Q: And the “Bax activation by WT Bcl2 in the presence of compound” value ([12]; WT Bcl2)?
A: can activate Bax via 6A7 conformational change

Q: And the “direct activation of Bax” value ([12]; without Bcl2)?
A: not a direct Bax activator

Q: What about the “Bax activation by ΔBH3 mutant Bcl2 in the presence of compound” value ([12]; ΔBH3 mutant Bcl2) of the same molecule?
A: not

Q: What about the body weight ([13]; 30 mg/kg) of the same molecule?
A: Weight loss was observed

Q: What about the “neutrophils, lymphocytes, RBC and platelets in blood” value ([13]; 30 mg/kg) of the same molecule?
A: no decreases in neutrophils, lymphocytes, red blood cells (RBC) and platelets (PLT)

Q: What about the “apoptosis in tumor tissues (active caspase 3 IHC or TUNEL)” value [13, 15] of the same molecule?
A: dose-dependent apoptosis induction

Q: What about the “tumor growth / repression of lung cancer in vivo” value [13, 15] of the same molecule?
A: potently suppress lung cancer growth in vivo; also recorded: dose-dependent repression of lung cancer in vivo

Q: And the “tumor growth / repression of lung cancer in vivo” value ([13]; 10, 20, 30 mg/kg/d i.p., 14 days, listed as BDA-2)?
A: represses lung cancer in vivo

Q: And the “histopathology of harvested normal tissues” value ([13]; 10-30 mg/kg/d)?
A: no evidence of normal tissue toxicities

Q: And the “kidney (BUN) and liver (ALT and AST) function” value ([13]; mouse, in vivo)?
A: in the normal range

Q: What about the “resistance of Bax deficient MEF cells compared to WT MEF cells” value [14] of the same molecule?
A: significantly resistant
